The record followed here is article PMC5429769, “Rational development of Stafib-2: a selective, nanomolar inhibitor of the transcription factor STAT5b” (Scientific Reports, 2017).

Where a chain is given by its changes, count along the chain named.

What all share (assay type): binding
For one assay, the system named is STAT3. Description: Fluorescence polarization assay, STAT3. The settings on record: at 40 µM.
Assay [1] has as its target T1, STAT5b Phe633Ala, Tyr665Ala (Homo sapiens, UniProt P51692, F633A/Y665A).
T1 sequence (P51692 1-787 F633A/Y665A): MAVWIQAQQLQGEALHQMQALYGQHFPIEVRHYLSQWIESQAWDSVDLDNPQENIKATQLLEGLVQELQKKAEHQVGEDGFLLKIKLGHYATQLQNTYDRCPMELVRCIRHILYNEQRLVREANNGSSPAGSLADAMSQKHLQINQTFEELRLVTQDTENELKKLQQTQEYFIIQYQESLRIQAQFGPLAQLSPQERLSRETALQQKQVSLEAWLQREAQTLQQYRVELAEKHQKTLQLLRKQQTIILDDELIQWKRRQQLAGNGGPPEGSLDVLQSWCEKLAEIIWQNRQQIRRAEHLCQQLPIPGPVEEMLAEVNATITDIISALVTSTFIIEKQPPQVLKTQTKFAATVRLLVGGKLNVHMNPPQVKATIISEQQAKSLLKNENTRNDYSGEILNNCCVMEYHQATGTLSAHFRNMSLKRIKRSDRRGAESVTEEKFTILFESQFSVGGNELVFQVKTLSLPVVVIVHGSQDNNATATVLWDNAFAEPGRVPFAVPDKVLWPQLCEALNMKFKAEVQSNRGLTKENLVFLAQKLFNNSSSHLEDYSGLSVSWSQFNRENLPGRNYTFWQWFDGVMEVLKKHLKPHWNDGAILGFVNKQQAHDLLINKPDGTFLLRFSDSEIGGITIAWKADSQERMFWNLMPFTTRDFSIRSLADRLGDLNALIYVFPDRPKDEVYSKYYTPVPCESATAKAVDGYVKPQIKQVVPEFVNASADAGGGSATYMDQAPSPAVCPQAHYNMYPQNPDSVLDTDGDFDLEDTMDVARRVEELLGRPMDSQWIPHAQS
Kind of assay: Isothermal titration calorimetry, STAT5b Phe633Ala, Tyr665Ala double mutant. The settings on record: ITC, 25 °C, n = 3.

Another assay concerns the target T2, STAT6 (Homo sapiens, UniProt P42226).
T2 sequence (P42226 1-847): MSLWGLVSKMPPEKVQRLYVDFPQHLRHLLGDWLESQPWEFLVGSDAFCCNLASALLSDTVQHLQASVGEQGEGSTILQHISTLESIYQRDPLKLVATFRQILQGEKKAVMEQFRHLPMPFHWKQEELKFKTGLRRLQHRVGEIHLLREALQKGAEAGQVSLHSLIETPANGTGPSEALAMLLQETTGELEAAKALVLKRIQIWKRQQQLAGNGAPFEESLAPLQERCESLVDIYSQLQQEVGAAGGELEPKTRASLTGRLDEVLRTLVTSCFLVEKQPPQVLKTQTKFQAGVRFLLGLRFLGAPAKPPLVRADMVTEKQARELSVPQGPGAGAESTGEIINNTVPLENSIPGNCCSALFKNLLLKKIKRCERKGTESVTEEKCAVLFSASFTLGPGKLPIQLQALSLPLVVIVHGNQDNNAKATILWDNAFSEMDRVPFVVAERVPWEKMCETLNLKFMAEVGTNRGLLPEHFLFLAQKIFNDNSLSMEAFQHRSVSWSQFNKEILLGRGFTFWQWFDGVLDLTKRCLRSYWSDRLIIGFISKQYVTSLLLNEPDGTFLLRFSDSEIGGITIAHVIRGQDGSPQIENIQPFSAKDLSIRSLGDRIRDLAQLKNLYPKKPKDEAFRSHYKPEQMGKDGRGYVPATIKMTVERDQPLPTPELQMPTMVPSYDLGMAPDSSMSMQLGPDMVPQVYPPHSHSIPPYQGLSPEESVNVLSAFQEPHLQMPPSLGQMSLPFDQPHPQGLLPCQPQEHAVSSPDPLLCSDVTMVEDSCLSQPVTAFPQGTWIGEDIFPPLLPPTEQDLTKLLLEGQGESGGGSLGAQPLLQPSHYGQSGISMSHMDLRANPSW
Description: Fluorescence polarization assay, STAT6.

The next assay has as its target T3, STAT5b Lys600Ala (Homo sapiens, UniProt P51692, K600A).
T3 sequence (P51692 1-787 K600A): T1 sequence (P51692 1-787 F633A/Y665A) with K600A, A633F, A665Y
Description: Isothermal titration calorimetry, STAT5b Lys600Ala. The settings on record: ITC, 25 °C.

On to `O=C(COc1ccc(C(=O)Nc2ccc(Oc3ccccc3)cc2)cc1)NCc1ccc(OP(=O)(O)O)c(OP(=O)(O)O)c1` [compound 4, 4-((2-(4-((4-phenoxyphenyl)carbamoyl)phenoxy)acetamido)methyl)-1,2-phenylene bis(dihydrogen phosphate)], for which the STAT3 maximum inhibition in the assay on STAT3 is listed as 30 ± 3%. Further, in assay [1], the Kd was 3.8 ± 1.7 µM, the ΔH was -5.1 ± 0.5 kcal/mol and the “−TΔS” value was -2.4 ± 0.3 kcal/mol. This compound gave a Ki at STAT6 (converted from IC50 using the published equation) of 11.7 ± 1.2 µM. At STAT6 (fluorescence polarization), this compound returned an IC50 of 23.7 ± 2.5 µM. In addition, on STAT5b Lys600Ala, binding was characterised by a dissociation constant (Kd) of 23 ± 10 µM.
